The target in this experiment is T1, 11β-HSD1 (Homo sapiens, UniProt P28845).
T1 construct: detecting cortisol generated from cortisterone by human liver microsomes; from tissue; host or cells: human liver microsomes
Description: In vitro inhibition of 11β-HSD1, HTRF detection of cortisol generated from cortisone by human liver microsomes. As to conditions: 1 hour at 37° C., pH 6.0, NADPH 200 μM, cortisone 80 nM, inhibition relative to carbenoxolone signal. Format: biochemical. The method, boiled down:
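Inhibition expressed against the carbenoxolone signal and fitted to IC50 curves. Readout: HTRF competition between microsomal cortisol and XL665-labelled cortisol for Eu-cryptate anti-cortisol antibody (typically 2 h), with emission ratio 665/615 calibrated to cortisol concentration.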
For orientation: In TR-FRET formats the signal depends on donor and acceptor labels being close together.

Read-outs that look alike come from different tables or passages of the source.

The IC50 is the concentration at which inhibition is half-maximal.

T1 sequence (P28845 whole entry): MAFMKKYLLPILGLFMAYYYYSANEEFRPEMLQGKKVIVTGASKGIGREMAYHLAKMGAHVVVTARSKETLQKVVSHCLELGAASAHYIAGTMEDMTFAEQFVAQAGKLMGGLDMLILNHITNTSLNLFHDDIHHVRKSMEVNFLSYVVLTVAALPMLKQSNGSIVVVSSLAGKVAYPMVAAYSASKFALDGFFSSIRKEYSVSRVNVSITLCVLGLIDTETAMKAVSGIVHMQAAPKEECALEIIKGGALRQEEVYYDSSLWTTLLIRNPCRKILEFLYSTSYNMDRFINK

`CC(C)(O)c1cccc(C(=O)N2CC[C@@]3(C)c4ccccc4C[C@@H]2C3(C)C)c1` [Example 317, [3-(1-Hydroxy-1-methyl-ethyl)-phenyl]-[(2R,6S)-6,11,11-trimethyl-1,2,5,6-tetrahydro-4H-2,6-methano-benzo[d]azocin-3-yl]-methanone] returned a concentration for half-maximal inhibition (IC50) (11β-HSD IC50 (nM)) of 217 nM. On the same count and under the same terms, to `CC1(C)[C@H]2Cc3ccccc3[C@]1(C)CCN2C(=O)c1ccc(O)cc1` [Example 318, (4-Hydroxy-phenyl)-[(2R,6S)-6,11,11-trimethyl-1,2,5,6-tetrahydro-4H-2,6-methano-benzo[d]azocin-3-yl]-methanone] belongs 31 nM.

The compound `CC1(C)[C@H]2Cc3ccccc3[C@]1(C)CCN2C(=O)c1cccc(O)c1` [Example 319, (3-Hydroxy-phenyl)-[(2R,6S)-6,11,11-trimethyl-1,2,5,6-tetrahydro-4H-2,6-methano-benzo[d]azocin-3-yl]-methanone] showed an IC50 (11β-HSD IC50 (nM)) of 446 nM. On the same count and under the same terms, to `CC1(C)[C@H]2Cc3ccccc3[C@]1(C)CCN2C(=O)c1cc(Cl)c(O)c(Cl)c1` [Example 320, (3,5-Dichloro-4-hydroxy-phenyl)-[(2R,6S)-6,11,11-trimethyl-1,2,5,6-tetrahydro-4H-2,6-methano-benzo[d]azocin-3-yl]-methanone] belongs 165 nM.

On to `COc1ccc2c(c1)C1CCN(C(=O)c3ccc4nc[nH]c4c3)C1C2` (stereo not shown) [Example 321, (3H-Benzoimidazol-5-yl)-(5-methoxy-3,3a,8,8a-tetrahydro-2H-1-aza-cyclopenta[a]inden-1-yl)-methanone], for which, under “read-out: 11β-HSD IC50”, the IC50 came out at 1170 nM. Still for that read-out and setting: to `CC12CC(Cc3ccccc31)N(C(=O)c1ccc3nc[nH]c3c1)C2` (stereo not shown) [Example 323, (3H-Benzoimidazol-5-yl)-(1-methyl-10-aza-tricyclo[7.2.1.0*2,7*]dodeca-2,4,6-trien-10-yl)-methanone] belongs 620 nM. Still for that read-out and setting: to `CC12CCCN(C(=O)c3ccc4nc[nH]c4c3)C(Cc3ccccc31)C2` (stereo not shown) [Example 324, (3H-Benzoimidazol-5-yl)-(1-methyl-10-aza-tricyclo[7.4.1.0*2,7*]tetradeca-2,4,6-trien-10-yl)-methanone] belongs 121 nM. Still for that read-out and setting: to `CC1C2c3ccc(O)cc3CC2N(C(=O)c2ccc3nc[nH]c3c2)CC1(C)C` (stereo not shown) [Example 330, (3H-Benzoimidazol-5-yl)-(7-hydroxy-3,3,4-trimethyl-2,3,4,4a,9,9a-hexahydro-indeno[2,1-b]pyridin-1-yl)-methanone] belongs 44 nM. With `COc1c(F)cc(C(=O)N2CC[C@@]3(C)c4ccccc4C[C@@H]2C3(C)C)cc1F` [Example 331, (3,5-Difluoro-4-methoxy-phenyl)-[(2R,6S)-6,11,11-trimethyl-1,2,5,6-tetrahydro-4H-2,6-methano-benzo[d]azocin-3-yl]-methanone], the IC50 (11β-HSD IC50 (nM)) is 439 nM. As to `Cc1nnc(-c2ccc3c(c2)[C@]2(C)CCN(C(=O)c4ccc5nc[nH]c5c4)[C@H](C3)[C@H]2C)o1` [Example 332, (3H-Benzoimidazol-5-yl)-[(2R,6R,11S)-6,11-dimethyl-8-(5-methyl-[1,3,4]oxadiazol-2-yl)-1,2,5,6-tetrahydro-4H-2,6-methano-benzo[d]azocin-3-yl]-methanone], where the note is “11β-HSD IC50 (nM)”, the IC50 amounted to 64 nM.

As to `Cc1cnc(-c2nc3cc4c(cc3o2)[C@]2(C)CCN(C(=O)c3ccc5nc[nH]c5c3)[C@H](C4)[C@H]2C)cn1` [Example 333, (3H-Benzoimidazol-5-yl)-[(6R,10R,12S)-5,6,7,8,9,10-hexahydro-10,12-dimethyl-2-(5-methyl-pyrazin-2-yl)-6,10-methano-oxazolo[5,4-i][3]benzazocin-7-yl]-methanone], the IC50 (11β-HSD IC50 (nM)) was determined as 84 nM. Same read-out and setting: the value for `C[C@@H]1[C@H]2Cc3ccc(-c4nnco4)cc3[C@]1(C)CCN2C(=O)c1ccc2nc[nH]c2c1` [Example 334, (3H-Benzoimidazol-5-yl)-[(2R,6R,11S)-6,11 dimethyl-8-[1,3,4]oxadiazol-2-yl-1,2,5,6-tetrahydro-4H-2,6-methano-benzo[d]azocin 3-yl]-methanone] was 104 nM; that for `CC1(C)[C@H]2Cc3ccccc3[C@]1(C)CCN2C(=O)c1cc(F)c(O)c(F)c1` [Example 335, (3,5-Difluoro-4-hydroxy-phenyl)-[(2R,6S)-6,11,11-trimethyl-1,2,5,6-tetrahydro-4H-2,6-methano-benzo[d]azocin-3-yl]-methanone] was 115 nM; that for `Cc1nnc(-c2ccc3c(c2)[C@]2(C)CCN(C(=O)c4ccc5nc[nH]c5c4)[C@H](C3)[C@H]2C)n1C` [Example 336, (3H-Benzoimidazol-5-yl)-[(2R,6R,11S)-8-(4,5-dimethyl-4H-[1,2,4]triazol-3-yl)-6,11-dimethyl-1,2,5,6-tetrahydro-4H-2,6-methano-benzo[d]azocin-3-yl]-methanone] was 198 nM. As for `CC1(C)[C@H]2Cc3cc4oc([C@H]5CCCO5)nc4cc3[C@]1(C)CCN2C(=O)c1ccc2nc[nH]c2c1` [Example 337, (3H-Benzoimidazol-5-yl)-[(6R,10S)-5,6,7,8,9,10-hexahydro-10,12,12-trimethyl-2-[(R)-tetrahydrofuran-2-yl]-6,10-methano-oxazolo[4,5-i][3]benzazocin-7-yl]-methanone], half-maximal inhibition (11β-HSD IC50 (nM)) (IC50) required 52 nM.

In turn, `CC1(C)[C@H]2Cc3cc4oc([C@@H]5CCCO5)nc4cc3[C@]1(C)CCN2C(=O)c1ccc2nc[nH]c2c1` [Example 338, (3H-Benzoimidazol-5-yl)-[(6R,10S)-5,6,7,8,9,10-hexahydro-10,12,12-trimethyl-2-[(S)-tetrahydrofuran-2-yl]-6,10-methano-oxazolo[4,5-i][3]benzazocin-7-yl]-methanone] registered an IC50 (11β-HSD IC50 (nM)) of 63 nM. On the same count and under the same terms, to `CC1(C)[C@H]2Cc3ccccc3[C@]1(C)CCN2C(=O)c1ccc(C(O)(C(F)(F)F)C(F)(F)F)cc1` [Example 339, [4-(2,2,2-Trifluoro-1-hydroxy-1-trifluoromethyl-ethyl)-phenyl]-[(2R,6S)-6,11,11-trimethyl-1,2,5,6-tetrahydro-4H-2,6-methano-benzo[d]azocin-3-yl]-methanone] belongs 1270 nM; to `C[C@@H]1[C@H]2Cc3ccc(C(C)(C)O)cc3[C@]1(C)CCN2C(=O)c1ccc2nc[nH]c2c1` [Example 340, (3H-Benzoimidazol-5-yl)-[(2R,6R,11S)-8-(1-hydroxy-1-methyl-ethyl)-6,11-dimethyl-1,2,5,6-tetrahydro-4H-2,6-methano-benzo[d]azocin-3-yl]-methanone], 67 nM; to `COC(=O)c1ccc2c(c1)[C@]1(C)CCN(C(=O)c3ccc4nc[nH]c4c3)[C@H](C2)[C@H]1C` [Example 341, (2R,6R,11S)-3-(3H-Benzoimidazole-5-carbonyl)-6,11-dimethyl-1,2,3,4,5,6-hexahydro-2,6-methano-benzo[d]azocine-8-carboxylic acid methyl ester], 601 nM. Under “11β-HSD IC50 (nM)”, `CC1(C)[C@H]2Cc3ccccc3[C@]1(C)CCN2C(=O)c1ccc(S(N)(=O)=O)cc1` [Example 342, 4-[(2R,6S)-6,11,11-Trimethyl-1,2,5,6-tetrahydro-4H-2,6-methano-benzo[d]azocine-3-carbonyl]-benzenesulfonamide] returned a half-maximal inhibitory concentration (IC50) of 373 nM. The same measure, in the same setting: to `CC1(C)[C@H]2Cc3ccccc3[C@]1(C)CCN2C(=O)c1cccc(S(N)(=O)=O)c1` [Example 343, 3-[(2R,6S)-6,11,11-Trimethyl-1,2,5,6-tetrahydro-4H-2,6-methano-benzo[d]azocine-3-carbonyl]-benzenesulfonamide] belongs 1520 nM; to `CC(O)(c1ccc2c(c1)[C@]1(C)CCN(C(=O)c3ccc4nc[nH]c4c3)[C@H](C2)C1(C)C)C(F)(F)F` (stereo partly drawn) [Example 344, (3H-Benzoimidazol-5-yl)-[(2R,6S)-6,11,11-trimethyl-8-(2,2,2-trifluoro-1-hydroxy-1-methyl-ethyl)-1,2,5,6-tetrahydro-4H-2,6-methano-benzo[d]azocin-3-yl]-methanone], 35 nM.

For the origin of these results see patent US8859580B2 (Boehringer Ingelheim International GmbH, priority 2007, dated 2014).
